Data from US20250230193A1, “CYCLIC COMPOUND HAVING SELECTIVE KRAS INHIBITORY EFFECT ON HRAS AND NRAS” (CHUGAI SEIYAKU KABUSHIKI KAISHA, priority 2022, published 2025).

What was measured:
[1] = molecular target: GDP-bound NRAS wild-type protein (Homo sapiens, UniProt P01111); test: Binding to NRAS by surface plasmon resonance (SPR), Single Cycle Kinetics; conditions: SPR, GDP-bound NRAS wild-type vs GDP-bound KRAS wild-type
[2] = molecular target: GDP-bound HRAS wild-type protein (Homo sapiens, UniProt P01112); test: Binding to HRAS by surface plasmon resonance (SPR), Single Cycle Kinetics; conditions: SPR, GDP-bound HRAS wild-type vs GDP-bound KRAS wild-type
Chain of GDP-bound HRAS wild-type protein (P01112 whole entry): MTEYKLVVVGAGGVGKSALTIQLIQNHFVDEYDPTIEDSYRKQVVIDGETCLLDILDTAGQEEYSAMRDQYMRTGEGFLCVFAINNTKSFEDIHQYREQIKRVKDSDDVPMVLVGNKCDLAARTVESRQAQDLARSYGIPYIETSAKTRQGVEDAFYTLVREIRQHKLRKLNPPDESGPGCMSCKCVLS

Chain of GDP-bound NRAS wild-type protein (P01111 whole entry): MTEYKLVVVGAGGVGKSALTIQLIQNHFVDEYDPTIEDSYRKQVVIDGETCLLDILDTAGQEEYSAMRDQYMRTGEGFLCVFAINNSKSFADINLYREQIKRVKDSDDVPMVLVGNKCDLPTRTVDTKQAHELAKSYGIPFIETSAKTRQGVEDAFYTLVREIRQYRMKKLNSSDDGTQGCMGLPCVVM

Compound	NRAS/KRAS (ratio of KD value with respect to NRAS to KD value with respect to KRAS) [1]	HRAS/KRAS (ratio of KD value with respect to HRAS to KD value with respect to KRAS) [2]
CCO[C@@H]1C[C@H]2C(=O)NC3(CC(C)(C)C3)C(=O)N(C)[C@@H](C(CC)CC)C(=O)N(C)[C@H](C(=O)N(C)C)CC(=O)N(C)[C@@H](CC)C(=O)N[C@@H]([C@@H](C)CC)C(=O)N(C)CC(=O)N(C)[C@H]3C/C=C\CCN(C3=O)[C@@H](Cc3ccc(C)cc3)C(=O)N(C)CC(=O)N[C@@H](CCc3ccc(Cl)c(Cl)c3)C(=O)N2C1 [PP2188]	AA (a compound having 20 or more is denoted as AA)	A (a compound having 10 or more and less than 20 is denoted as A)
CC[C@H](C)[C@@H]1NC(=O)[C@H](CC(C)C)N(C)C(=O)C[C@@H](C(=O)N(C)C)N(C)C(=O)[C@H](C2CCCC2)N(C)C(=O)C2(CCCC2)NC(=O)[C@@H]2C[C@@H](C)CN2C(=O)[C@H](CCc2cc(F)c(C(F)(F)F)c(F)c2)NC(=O)CN(C)C(=O)[C@H](Cc2ccc(C)cc2)N2CC/C=C\C[C@@H](C2=O)N(C)C(=O)CN(C)C1=O [PP2189]	A (a compound having 10 or more and less than 20 is denoted as A)	A (a compound having 10 or more and less than 20 is denoted as A)
CCC[C@H]1C(=O)N[C@@H](C2CCCC2)C(=O)N(C)CC(=O)N(C)[C@H]2C/C=C\CCN(C2=O)[C@@H](Cc2ccc(C)cc2)C(=O)N(C)CC(=O)N[C@@H](CCc2ccc(C(F)(F)F)c(Cl)c2)C(=O)N2C[C@H](OCC)C[C@H]2C(=O)NC2(CC(C)(C)C2)C(=O)N(C)[C@@H](CC(C)C)C(=O)N(C)[C@H](C(=O)N(C)C)CC(=O)N1C [PP2190]	A (a compound having 10 or more and less than 20 is denoted as A)	A (a compound having 10 or more and less than 20 is denoted as A)
CC[C@@H]1C[C@H]2C(=O)NC3(CCCC3)C(=O)N(C)[C@@H](C3CCCC3)C(=O)N(C)[C@H](C(=O)N(C)C)CC(=O)N(C)[C@@H](CC(C)C)C(=O)N[C@@H]([C@@H](C)CC)C(=O)N(C)CC(=O)N(C)[C@H]3C/C=C\CCN(C3=O)[C@@H](Cc3ccc(C)cc3)C(=O)N(C)CC(=O)N[C@@H](CCc3cc(F)c(C(F)(F)F)c(F)c3)C(=O)N2C1 [PP2191]	A (a compound having 10 or more and less than 20 is denoted as A)	B (a compound having 3 or more and less than 10 is denoted as B)
CCC[C@H]1C(=O)N[C@@H](C2CCCC2)C(=O)N(C)CC(=O)N(C)[C@H]2C/C=C\CCN(C2=O)[C@@H](Cc2ccc(C)cc2)C(=O)N(C)CC(=O)N[C@@H](CCc2ccc(C(F)(F)F)c(Cl)c2)C(=O)N2C[C@H](OCC)C[C@H]2C(=O)NC2(CC(C)(C)C2)C(=O)N(C)[C@@H](CC(F)(F)F)C(=O)N(C)[C@H](C(=O)N(C)C)CC(=O)N1C [PP2192]	A (a compound having 10 or more and less than 20 is denoted as A)	A (a compound having 10 or more and less than 20 is denoted as A)
CCC[C@@H]1C[C@H]2C(=O)NC3(CCCC3)C(=O)N(C)[C@@H](C3CCCC3)C(=O)N(C)[C@H](C(=O)N(C)C)CC(=O)N(C)[C@@H](CC(C)C)C(=O)N[C@@H]([C@@H](C)CC)C(=O)N(C)CC(=O)N(C)[C@H]3C/C=C\CCN(C3=O)[C@@H](Cc3ccc(C)cc3)C(=O)N(C)CC(=O)N[C@@H](CCc3cc(F)c(C(F)(F)F)c(F)c3)C(=O)N2C1 [PP2193]	A (a compound having 10 or more and less than 20 is denoted as A)	A (a compound having 10 or more and less than 20 is denoted as A)
